Each compound was assayed on HCI-012 (organoid from a breast cancer xenograft) (assay: CTG-3D luminescence at 96 h relative to day-0 seeding control (ratio to day 0); higher = more growth / less cytotoxicity; PDxO 3D drug screen, 96 h, CTG-3D normalised to day-0 seeding control.). Details: 10 µM; days in culture: 162.

Structure (SMILES) | CTG-3D luminescence at 96 h
CC(C)(C(=O)NCC(F)(F)C(F)(F)F)C(=O)N[C@@H]1C(=O)Nc2ccccc2-c2ccccc21 | 2.59
C=CC(=O)N1CCC[C@@H](n2nc(-c3ccc(Oc4ccccc4)cc3)c3c(N)ncnc32)C1 [ibrutinib] | 1.53
CNC(=O)c1cccc(-c2ccc3c(N4CCOC[C@@H]4C)nc(N4CCOC[C@@H]4C)nc3n2)c1 [vistusertib] | 1.06
CCN(c1cc(C#CCN2CCOCC2)cc(C(=O)NCc2c(C)cc(C)[nH]c2=O)c1C)[C@H]1CC[C@H](N(C)CCOC)CC1 | 3.19

Same assay, conditions: 10 µM; days in culture: 201

Structure (SMILES) | CTG-3D luminescence at 96 h
CC(C)(C(=O)NCC(F)(F)C(F)(F)F)C(=O)N[C@@H]1C(=O)Nc2ccccc2-c2ccccc21 | 1.51
C=CC(=O)N1CCC[C@@H](n2nc(-c3ccc(Oc4ccccc4)cc3)c3c(N)ncnc32)C1 [ibrutinib] | 0.842
CNC(=O)c1cccc(-c2ccc3c(N4CCOC[C@@H]4C)nc(N4CCOC[C@@H]4C)nc3n2)c1 [vistusertib] | 0.57
CCN(c1cc(C#CCN2CCOCC2)cc(C(=O)NCc2c(C)cc(C)[nH]c2=O)c1C)[C@H]1CC[C@H](N(C)CCOC)CC1 | 1.83

Same assay, conditions: 100 µM; days in culture: 143

Structure (SMILES) | CTG-3D luminescence at 96 h
CC(C)(C(=O)NCC(F)(F)C(F)(F)F)C(=O)N[C@@H]1C(=O)Nc2ccccc2-c2ccccc21 | 1.37
C=CC(=O)N1CCC[C@@H](n2nc(-c3ccc(Oc4ccccc4)cc3)c3c(N)ncnc32)C1 [ibrutinib] | -0.0164
CNC(=O)c1cccc(-c2ccc3c(N4CCOC[C@@H]4C)nc(N4CCOC[C@@H]4C)nc3n2)c1 [vistusertib] | 0.292
CCN(c1cc(C#CCN2CCOCC2)cc(C(=O)NCc2c(C)cc(C)[nH]c2=O)c1C)[C@H]1CC[C@H](N(C)CCOC)CC1 | 0.606

Same assay, conditions: 100 µM; days in culture: 162

Structure (SMILES) | CTG-3D luminescence at 96 h
CC(C)(C(=O)NCC(F)(F)C(F)(F)F)C(=O)N[C@@H]1C(=O)Nc2ccccc2-c2ccccc21 | 1.53
C=CC(=O)N1CCC[C@@H](n2nc(-c3ccc(Oc4ccccc4)cc3)c3c(N)ncnc32)C1 [ibrutinib] | -0.0115
CNC(=O)c1cccc(-c2ccc3c(N4CCOC[C@@H]4C)nc(N4CCOC[C@@H]4C)nc3n2)c1 [vistusertib] | 0.318
CCN(c1cc(C#CCN2CCOCC2)cc(C(=O)NCc2c(C)cc(C)[nH]c2=O)c1C)[C@H]1CC[C@H](N(C)CCOC)CC1 | 1.69

Same assay, conditions: 100 µM; days in culture: 201

Structure (SMILES) | CTG-3D luminescence at 96 h
CC(C)(C(=O)NCC(F)(F)C(F)(F)F)C(=O)N[C@@H]1C(=O)Nc2ccccc2-c2ccccc21 | 2.23
C=CC(=O)N1CCC[C@@H](n2nc(-c3ccc(Oc4ccccc4)cc3)c3c(N)ncnc32)C1 [ibrutinib] | -0.018
CNC(=O)c1cccc(-c2ccc3c(N4CCOC[C@@H]4C)nc(N4CCOC[C@@H]4C)nc3n2)c1 [vistusertib] | 0.745
CCN(c1cc(C#CCN2CCOCC2)cc(C(=O)NCc2c(C)cc(C)[nH]c2=O)c1C)[C@H]1CC[C@H](N(C)CCOC)CC1 | 2.37

Same assay, conditions: 625 fM; days in culture: 143

Structure (SMILES) | CTG-3D luminescence at 96 h
CC(C)(C(=O)NCC(F)(F)C(F)(F)F)C(=O)N[C@@H]1C(=O)Nc2ccccc2-c2ccccc21 | 1.72
C=CC(=O)N1CCC[C@@H](n2nc(-c3ccc(Oc4ccccc4)cc3)c3c(N)ncnc32)C1 [ibrutinib] | 1.75
CNC(=O)c1cccc(-c2ccc3c(N4CCOC[C@@H]4C)nc(N4CCOC[C@@H]4C)nc3n2)c1 [vistusertib] | 1.87
CCN(c1cc(C#CCN2CCOCC2)cc(C(=O)NCc2c(C)cc(C)[nH]c2=O)c1C)[C@H]1CC[C@H](N(C)CCOC)CC1 | 1.86

Same assay, conditions: 625 fM; days in culture: 162

Structure (SMILES) | CTG-3D luminescence at 96 h
CC(C)(C(=O)NCC(F)(F)C(F)(F)F)C(=O)N[C@@H]1C(=O)Nc2ccccc2-c2ccccc21 | 3.16
C=CC(=O)N1CCC[C@@H](n2nc(-c3ccc(Oc4ccccc4)cc3)c3c(N)ncnc32)C1 [ibrutinib] | 2.67
CNC(=O)c1cccc(-c2ccc3c(N4CCOC[C@@H]4C)nc(N4CCOC[C@@H]4C)nc3n2)c1 [vistusertib] | 3.34
CCN(c1cc(C#CCN2CCOCC2)cc(C(=O)NCc2c(C)cc(C)[nH]c2=O)c1C)[C@H]1CC[C@H](N(C)CCOC)CC1 | 2.39

Same assay, conditions: 625 fM; days in culture: 201

Structure (SMILES) | CTG-3D luminescence at 96 h
CC(C)(C(=O)NCC(F)(F)C(F)(F)F)C(=O)N[C@@H]1C(=O)Nc2ccccc2-c2ccccc21 | 1.61
C=CC(=O)N1CCC[C@@H](n2nc(-c3ccc(Oc4ccccc4)cc3)c3c(N)ncnc32)C1 [ibrutinib] | 1.54
CNC(=O)c1cccc(-c2ccc3c(N4CCOC[C@@H]4C)nc(N4CCOC[C@@H]4C)nc3n2)c1 [vistusertib] | 1.48
CCN(c1cc(C#CCN2CCOCC2)cc(C(=O)NCc2c(C)cc(C)[nH]c2=O)c1C)[C@H]1CC[C@H](N(C)CCOC)CC1 | 1.64

Source: the supplement of paper PMC8882468
